In the NIST ThermoML archive (doi:10.1021/je200628n):
± gives the expanded uncertainty stated by the source.

Experiment: activity coefficient (dimensionless); of the first substance listed, at infinite dilution; xn = mol fraction of the nth substance listed
Conditions: 101 kPa, Liquid, Chromatography, x1 = 0

activity coefficient (328.15 K) | activity coefficient (338.15 K) | activity coefficient (343.15 K) | activity coefficient (348.15 K) | activity coefficient (348.25 K) | activity coefficient (353.15 K) | activity coefficient (358.25 K) | activity coefficient (363.21 K) | SMILES | further results
2.71 ± 0.14 | 2.12 ± 0.11 | 1.92 ± 0.098 | 1.73 ± 0.087 | – | – | – | – | CCCCCCl [1-chloropentane] + NCCCCCCCCN | –
– | – | – | 0.774 ± 0.037 | – | – | – | – | CCCCO [butan-1-ol] + NCCCCCCCCCCN | activity coefficient (338.2 K): 0.721 ± 0.035; activity coefficient (353.22 K): 0.815 ± 0.038
– | – | – | – | 4.83 ± 0.25 | 4.53 ± 0.23 | 4.33 ± 0.22 | 4.11 ± 0.21 | C=CCCCCCC [oct-1-ene] + NCCCCCCCCCCCCN | –
– | – | – | – | 1.36 ± 0.064 | 1.29 ± 0.06 | 1.22 ± 0.056 | 1.15 ± 0.052 | CCOC(C)=O [ethyl acetate] + NCCCCCCCCCCCCN | –
– | – | – | – | 5.05 ± 0.26 | 4.8 ± 0.25 | 4.47 ± 0.23 | 4.24 ± 0.22 | C=CCCCCCCCC [1-decene] + NCCCCCCCCCCCCN | –
1.08 ± 0.048 | 0.954 ± 0.042 | 0.902 ± 0.041 | 0.855 ± 0.039 | – | – | – | – | CCOC(C)=O [ethyl acetate] + NCCCCCCCCN | –
– | – | – | – | 1.33 ± 0.062 | 1.23 ± 0.057 | 1.12 ± 0.05 | 1.05 ± 0.046 | ClCCl [dichloromethane] + NCCCCCCCCCCCCN | –
1.8 ± 0.09 | 1.67 ± 0.083 | 1.62 ± 0.08 | 1.59 ± 0.078 | – | – | – | – | c1ccccc1 [benzene] + NCCCCCCCCN | –
0.657 ± 0.034 | 0.552 ± 0.032 | 0.53 ± 0.031 | 0.513 ± 0.031 | – | – | – | – | ClCCl [dichloromethane] + NCCCCCCCCN | –
4.73 ± 0.24 | 4.4 ± 0.23 | 4.24 ± 0.22 | 4.13 ± 0.21 | – | – | – | – | CCCCCCCC [octane] + NCCCCCCCCN | –
– | – | – | 0.731 ± 0.036 | – | – | – | – | CCCO [propan-1-ol] + NCCCCCCCCCCN | activity coefficient (338.2 K): 0.622 ± 0.033; activity coefficient (353.22 K): 0.772 ± 0.037
– | – | – | – | 1.16 ± 0.053 | – | – | – | CCCCC [pentane] + NCCCCCCCCN | activity coefficient (328.21 K): 1.37 ± 0.065; activity coefficient (338.23 K): 1.27 ± 0.059; activity coefficient (343.19 K): 1.22 ± 0.056
– | – | – | – | 1.07 ± 0.048 | 1.1 ± 0.049 | 1.12 ± 0.051 | 1.16 ± 0.053 | CCCCO [butan-1-ol] + NCCCCCCCCCCCCN | –
3.85 ± 0.2 | 2.73 ± 0.14 | 2.38 ± 0.12 | 2.02 ± 0.1 | – | – | – | – | CCCCCCCl [1-chlorohexane] + NCCCCCCCCN | –
– | – | – | 4.64 ± 0.24 | – | – | – | – | CCCCCCC [heptane] + NCCCCCCCCCCN | activity coefficient (338.2 K): 5.05 ± 0.26; activity coefficient (353.22 K): 4.46 ± 0.23
– | – | – | – | 0.828 ± 0.039 | 0.891 ± 0.04 | 0.952 ± 0.042 | 1.03 ± 0.045 | CCO [ethanol] + NCCCCCCCCCCCCN | –
– | – | – | 0.676 ± 0.034 | – | – | – | – | CCO [ethanol] + NCCCCCCCCCCN | activity coefficient (338.2 K): 0.602 ± 0.033; activity coefficient (353.22 K): 0.718 ± 0.035
0.384 ± 0.029 | 0.407 ± 0.029 | 0.42 ± 0.029 | 0.435 ± 0.029 | – | – | – | – | CCO [ethanol] + NCCCCCCCCN | –
– | – | – | 3.06 ± 0.16 | – | – | – | – | C=CCCCC [hex-1-ene] + NCCCCCCCCCCN | activity coefficient (338.2 K): 3.37 ± 0.17; activity coefficient (353.22 K): 2.92 ± 0.15
– | – | – | – | 6.11 ± 0.31 | 5.89 ± 0.3 | 5.74 ± 0.29 | 5.6 ± 0.29 | CCCCCCCCCC [decane] + NCCCCCCCCCCCCN | –
– | – | – | 2.98 ± 0.15 | – | – | – | – | C=CCCC [1-pentene] + NCCCCCCCCCCN | activity coefficient (338.2 K): 3.23 ± 0.17; activity coefficient (353.22 K): 2.88 ± 0.15
– | – | – | – | 2.5 ± 0.13 | 2.47 ± 0.13 | 2.42 ± 0.12 | 2.39 ± 0.12 | CCc1ccccc1 [ethylbenzene] + NCCCCCCCCCCCCN | –
0.567 ± 0.032 | 0.58 ± 0.032 | 0.593 ± 0.032 | 0.614 ± 0.033 | – | – | – | – | CCCO [propan-1-ol] + NCCCCCCCCN | –
– | – | – | – | 4.86 ± 0.25 | 4.8 ± 0.25 | 4.74 ± 0.24 | 4.69 ± 0.24 | CCCCCC [hexane] + NCCCCCCCCCCCCN | –

SMILES | activity coefficient (328.15 K) | activity coefficient (338.15 K) | activity coefficient (343.15 K) | activity coefficient (348.15 K) | activity coefficient (348.25 K) | activity coefficient (353.15 K) | activity coefficient (358.25 K) | activity coefficient (363.21 K) | further results
Cc1ccccc1 [toluene] + NCCCCCCCCCCN | – | – | – | 2.23 ± 0.12 | – | – | – | – | activity coefficient (338.2 K): 2.52 ± 0.13; activity coefficient (353.22 K): 2.13 ± 0.11
ClC(Cl)(Cl)Cl [tetrachloromethane] + NCCCCCCCCCCCCN | – | – | – | – | 2.37 ± 0.12 | 2.28 ± 0.12 | 2.06 ± 0.11 | 1.98 ± 0.1 | –
Cc1ccccc1 [toluene] + NCCCCCCCCN | 2.39 ± 0.12 | 2.17 ± 0.11 | 2.11 ± 0.11 | 2.07 ± 0.11 | – | – | – | – | –
ClC(Cl)(Cl)Cl [tetrachloromethane] + NCCCCCCCCN | 2.06 ± 0.11 | 1.66 ± 0.082 | 1.51 ± 0.073 | 1.37 ± 0.065 | – | – | – | – | –
